In BigSolDB 2.1:

OC[C@@H](O)[C@@H](O)[C@H](O)[C@@H](O)CO
solubility (mole fraction)
Conditions | in THF | in acetone | in acetonitrile | in ethanol | in ethyl acetate | in methanol | in n-butanol | in n-propanol
278.15 K | 0.000363 | 0.000225 | 0.000109 | 0.000598 | 0.000239 | 0.00205 | 0.000449 | 0.000553
283.15 K | 0.000406 | 0.000255 | 0.000129 | 0.000753 | 0.000259 | 0.00275 | 0.000533 | 0.000677
288.15 K | 0.000446 | 0.000287 | 0.000153 | 0.000944 | 0.000289 | 0.00351 | 0.000627 | 0.000838
293.15 K | 0.000489 | 0.000328 | 0.000178 | 0.00117 | 0.000317 | 0.00461 | 0.000748 | 0.00102
298.15 K | 0.000544 | 0.000382 | 0.000208 | 0.00146 | 0.000354 | 0.00585 | 0.000895 | 0.00124
303.15 K | 0.000597 | 0.000436 | 0.000249 | 0.00181 | 0.000392 | 0.00739 | 0.00106 | 0.00152
